Where two headings read alike, the source gives them in different places.
Legend:
[1] = Pharmacokinetics, intravenous; format: in vivo, Beagle dogs; details: both sexes, Beagle, dog, plasma; for Vd: read-out: Vdss; for clearance: read-out: plasma clearance (CL)
Procedure: The elimination half-lives (T1/2) were 4.49 ± 0.669, 7.05 ± 3.07, and 8.47 ± 1.26 hours, respectively. The area under the plasma concentration-time curve from time zero to the last quantifiable time point (AUC0-last) was 75.1 ± 18.3, 238 ± 63.1, and 713 ± 122 h•ng/mL, respectively.

CYP2C8 = molecular target: T1, CYP2C8 (Homo sapiens, UniProt P10632); assay: CYP inhibition, human liver microsomes; format: in vitro ADME
T1 construct: human liver microsomal cytochrome P450 isoenzymes; from tissue; host or cells: human liver microsomes
T1 sequence (P10632 whole entry): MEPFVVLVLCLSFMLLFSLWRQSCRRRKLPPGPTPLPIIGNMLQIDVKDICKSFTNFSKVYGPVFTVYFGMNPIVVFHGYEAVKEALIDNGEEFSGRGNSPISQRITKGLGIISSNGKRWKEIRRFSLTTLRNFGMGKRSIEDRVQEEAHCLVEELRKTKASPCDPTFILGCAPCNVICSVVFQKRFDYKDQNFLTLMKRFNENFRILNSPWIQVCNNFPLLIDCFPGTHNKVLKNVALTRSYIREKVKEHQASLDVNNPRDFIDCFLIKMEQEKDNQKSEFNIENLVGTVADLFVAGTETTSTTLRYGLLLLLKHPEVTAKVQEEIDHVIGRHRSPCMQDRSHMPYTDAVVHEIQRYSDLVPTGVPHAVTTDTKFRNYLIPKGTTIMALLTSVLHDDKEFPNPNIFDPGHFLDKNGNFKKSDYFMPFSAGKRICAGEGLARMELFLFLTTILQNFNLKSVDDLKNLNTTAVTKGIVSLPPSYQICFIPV

[2] = system: cMYC-KRAS12V plasmacytoma; assay: cMYC-KRAS12V primary plasmacytoma (PCT) mouse model; format: in vivo, BALB/c mice
Procedure: The cMYC-KRAS12V-induced plasmacytoma mouse model in BALB/c (GemPharmatech Co., Ltd., Nanjing, China) was established as previously described.[33] On day 28 or 35 post bone marrow transplantation, recipients received various treatments. The 5TMM mouse model was established as previously described.[55] The 5TGM1-luc cells were intravenously injected into 6-week-old C57BL/KawRij mice (Harlan Co. Netherlands) with 2 × 10^6 cells per mouse. After three weeks, mice were treated with vehicle or PM 10 mg/kg. Serum Ca^2+ levels were monitored weekly for three weeks after the start of administration. Kaplan-Meier survival curves were generated for each treatment group. Additionally, the 5TMM mouse model studying PM’s effects on immune response and bone destruction involved randomizing mice into vehicle and PM (10 mg/kg) groups one week after inoculation. T cell subsets were analyzed by flow cytometry 24 h after a single dose and 1 month after vehicle or PM treatment. The mice were sacrificed after 1 month of treatment, and the bone destruction was detected by Micro-CT.

[3] = system: human double-hit lymphoma SUDHL-6; assay: SUDHL-6 subcutaneous tumor model; format: in vivo, NOD/SCID mice; details: for median survival time: satellite group
[4] = system: double-expressing lymphoma (DEL) PDX; assay: DEL PDX mouse model; format: in vivo, mice; details: 18 days; PM 5 mg/kg or 10 mg/kg
Procedure: All animal studies were performed in accordance with the guidelines approved by the Institutional Animal Care and Use Committee of Sichuan University, Chengdu, China. Six- to seven-week-old female NOD-SCID mice were purchased from Beijing Vital River Laboratory Animal Technology Co., Ltd. (China). Mice received subcutaneous inoculation with 0.5 × 10^7 MM1S or RPMI-8226 cells, to establish xenograft models. Heterotopic PDX models were generated as previously described.[54] When tumors reached 150–250 mm^3, mice were treated with various compounds. PM and panobinostat were administered intravenously three times a week at 5 mg/kg in combination therapy. […] Tumor volume (tumor volume (mm^3) = π/6 × length × width^2) and body weights were measured every two days. At the end, tumor tissues were weighed, and antitumor activity was evaluated by the tumor inhibition rate = (1 − tumor weight of treatment group/tumor weight of vehicle group) × 100%.

[5] = system: class I HDAC substrates histone H3 and H4 in SUDHL-6, Daudi, Raji, Ramos, RPMI-8226; assay: Cellular acetylation of histone H3 and H4; format: cell-based, human
From the text: The results of these cell experiments were consistent with the in vitro enzyme activity assay results.

Raji-luc = assay: Luciferase substrate viability assay; format: cell-based, human
HDAC6 = HDAC6 (Homo sapiens, UniProt Q9UBN7); assay: HDAC enzyme activity in vitro; format: biochemical
HDAC6, sequence (Q9UBN7 whole entry): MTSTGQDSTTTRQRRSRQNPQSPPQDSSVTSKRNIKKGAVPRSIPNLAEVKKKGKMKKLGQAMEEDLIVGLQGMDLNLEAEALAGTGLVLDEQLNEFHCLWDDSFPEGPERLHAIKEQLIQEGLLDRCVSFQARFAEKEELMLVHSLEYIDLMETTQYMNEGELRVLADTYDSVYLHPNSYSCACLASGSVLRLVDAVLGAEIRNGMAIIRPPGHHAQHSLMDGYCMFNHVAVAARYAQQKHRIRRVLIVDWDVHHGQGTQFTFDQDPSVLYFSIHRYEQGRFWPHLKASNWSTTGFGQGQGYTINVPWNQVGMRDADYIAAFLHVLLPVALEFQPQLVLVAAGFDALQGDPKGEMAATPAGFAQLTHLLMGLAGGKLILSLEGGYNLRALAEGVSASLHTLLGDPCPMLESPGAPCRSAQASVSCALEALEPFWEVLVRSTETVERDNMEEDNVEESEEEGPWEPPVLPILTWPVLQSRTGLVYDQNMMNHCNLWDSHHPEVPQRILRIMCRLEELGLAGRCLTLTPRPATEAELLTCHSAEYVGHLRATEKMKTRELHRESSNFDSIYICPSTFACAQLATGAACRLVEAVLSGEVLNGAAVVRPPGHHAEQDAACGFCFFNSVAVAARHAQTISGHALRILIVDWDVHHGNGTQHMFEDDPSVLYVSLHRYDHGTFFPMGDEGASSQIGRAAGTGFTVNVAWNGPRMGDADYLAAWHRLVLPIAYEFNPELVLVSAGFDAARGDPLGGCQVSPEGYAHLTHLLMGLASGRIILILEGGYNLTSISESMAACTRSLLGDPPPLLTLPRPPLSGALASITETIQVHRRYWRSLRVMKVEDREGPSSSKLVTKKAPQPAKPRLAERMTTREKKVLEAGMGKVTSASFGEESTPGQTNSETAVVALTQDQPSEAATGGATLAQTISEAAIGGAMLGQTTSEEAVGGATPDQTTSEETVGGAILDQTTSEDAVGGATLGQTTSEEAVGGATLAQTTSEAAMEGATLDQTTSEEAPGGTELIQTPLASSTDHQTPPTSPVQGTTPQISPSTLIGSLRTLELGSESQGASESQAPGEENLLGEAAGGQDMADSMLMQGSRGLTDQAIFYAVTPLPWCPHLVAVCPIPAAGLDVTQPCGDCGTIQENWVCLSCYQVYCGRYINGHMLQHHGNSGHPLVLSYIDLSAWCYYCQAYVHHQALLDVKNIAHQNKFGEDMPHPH

HDAC8 = HDAC8 (Homo sapiens, UniProt Q9BY41); assay: HDAC enzyme activity in vitro; format: biochemical
HDAC8, sequence (Q9BY41 whole entry): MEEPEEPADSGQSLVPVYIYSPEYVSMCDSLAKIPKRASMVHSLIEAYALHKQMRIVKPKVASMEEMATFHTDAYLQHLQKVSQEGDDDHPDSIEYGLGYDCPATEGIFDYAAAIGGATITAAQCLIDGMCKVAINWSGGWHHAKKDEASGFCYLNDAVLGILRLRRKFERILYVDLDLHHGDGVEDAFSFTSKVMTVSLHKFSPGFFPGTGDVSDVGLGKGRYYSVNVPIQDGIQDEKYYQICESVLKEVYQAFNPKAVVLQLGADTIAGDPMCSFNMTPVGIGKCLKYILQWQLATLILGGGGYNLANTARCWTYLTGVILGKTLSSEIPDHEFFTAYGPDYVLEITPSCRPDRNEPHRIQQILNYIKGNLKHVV

[6] = Chronic toxicity test, intravenous; format: in vivo, Beagle dogs
Procedure: In this study, the low, medium, and high dose groups were set at 0.3, 1, and 3 mg/kg, respectively. The excipient was set at a high dose of 45 mg/kg. In the low dose group, occasional vomiting was observed; in the medium dose group, symptoms included vomiting, loose stools, and dark red stools; in the high dose group, symptoms included vomiting and dark red stools. Four dogs (4/10, 2 females and 2 males) died between days 13 and 26 of the experiment. […] The primary toxic target organs or systems included the immune system (spleen, thymus, lymph nodes), digestive system (esophagus, liver, pancreas, intestine), kidneys, heart, lungs, trachea, testes, bone marrow, and injection site. There was a dose-dependent relationship, and recovery was observed during the recovery period. The highest no serious toxicity dose (HNSTD) was determined to be 1 mg/kg.

[7] = system: 8 MM and 8 lymphoma cell lines; assay: Antiproliferation assay, cell line panel (CCK8); format: cell-based; details: Homo sapiens; 72 h, all 16 cell lines
Procedure: PM, panobinostat, Pom and DXM were dissolved in DMSO and stored at -20°C freezer. Cells were seeded at a density of 1.0-3.0 × 10^4 cells/well/100 μL in 96-well plates. After overnight incubation, cells were treated with the drug-containing culture medium for 24, 48, or 72 hours, and cell viability was measured using CCK8 (Oriscience, Chengdu, China) at the indicated time points with Biotek Cytation 3 at a wavelength of 450 nm. The IC50 values were calculated using GraphPad Prism 9.4.1, and Calcusyn 2.0 software was employed to calculate the CI values.

CN(Cc1nc2c(N3CCOCC3)nc(-c3ccc(N)cc3)nc2n1C)c1ncc(C(=O)NO)cn1.CS(=O)(=O)O [PM, 2-(((2-(4-Aminophenyl)-9-methyl-6-(4-morpholinyl)-9H-purine-8-yl)methyl)methylamino)-N-hydroxy-5-pyrimidine-carboxamide Mesylate]
AUC(0-t) ([1]; 0.3 mg/kg): 75.1 ± 18.3 ng·h/mL
Cmax ([1]; 0.3 mg/kg single i.v.): 130 ± 35.5 ng/mL
half-life ([1]; 0.3 mg/kg, read-out: T1/2 (converted)): 4.49 ± 0.669 h
Vd ([1]; 0.3 mg/kg): 3.69 ± 0.957 L/kg
clearance ([1]; 0.3 mg/kg): 68.4 ± 13.2 mL/min/kg
AUC(0-t) ([1]; 1 mg/kg): 238 ± 63.1 ng·h/mL
Cmax ([1]; 1 mg/kg single i.v.): 411 ± 162 ng/mL
half-life ([1]; 1 mg/kg, read-out: T1/2 (converted)): 7.05 ± 3.07 h
Vd ([1]; 1 mg/kg): 3.85 ± 1.8 L/kg
clearance ([1]; 1 mg/kg): 73.4 ± 17.9 mL/min/kg
AUC(0-t) ([1]; 3 mg/kg): 713 ± 122 ng·h/mL
Cmax ([1]; 3 mg/kg single i.v.): 1230 ± 166 ng/mL
half-life ([1]; 3 mg/kg, read-out: T1/2 (converted)): 8.47 ± 1.26 h
Vd ([1]; 3 mg/kg): 2.89 ± 0.605 L/kg
clearance ([1]; 3 mg/kg): 71.5 ± 11.6 mL/min/kg
half-life ([1]; single i.v., range over doses, read-out: half-life): 4.49 to 8.47 h
IC50 (CYP2C8): > 10000 nM
median survival time (MST) ([2]; 5 mg/kg, vehicle 47 days): 68 days
median survival time (MST) ([2]; more severe PCT model, from day 35, PM 10 mg/kg, regimens per Table S9): 59 days
T/C ([3]; 2.5 mg/kg): 47.88±9.41%
tumor inhibition rate ([3]; 2.5 mg/kg i.v. three times a week, mean of two batches): 58.99±2.32%
T/C ([3]; 5 mg/kg): 34.37±3.79%
tumor inhibition rate ([3]; 5 mg/kg): 69.35±3.47%
T/C ([3]; 10 mg/kg): 29.62±1.77%
tumor inhibition rate ([3]; 10 mg/kg): 75.81±8.28%
T/C ([3]; 20 mg/kg): 21.28±6.72%
tumor inhibition rate ([3]; 20 mg/kg): 81.40±5.38%
median survival time ([3]; 10 mg/kg, death = tumor 3000 mm³): 30 days
median survival time ([3]; 20 mg/kg): 30 days
complete remission [4]: all mice achieved complete remission
concentration inducing increased acetylation of histone H3 and H4 [5]: 0.3 to 1 nM
time until effect detectable (Raji-luc): 36 h
IC50 (HDAC6): 11.5 nM
IC50 (HDAC8): 3.8 nM
NOAEL ([6]; both sexes, beagle, dog, in vivo, intravenous): < 0.3 mg/kg
highest no serious toxicity dose (HNSTD) ([6]; both, beagle, dog, in vivo, intravenous): 1 mg/kg
dogs that died ([6]; high dose 3 mg/kg, days 13 to 26): 4/10
prolongation of QTc ([6]; high dose group, male dogs): 9.6%
IC50 [7]: < 5 nM

— paper PMC12198407, “Preclinical and first-in-human of purinostat mesylate, a novel selective HDAC I/IIb inhibitor, in relapsed/refractory multiple myeloma and lymphoma” (Signal Transduction and Targeted Therapy, 2025)
